# Laboratory results: ChEMBL document CHEMBL6115051, “Design of Novel Mercapto-3-phenylpropanoyl Dipeptides as Dual Angiotensin-Converting Enzyme C-Domain-Selective/Neprilysin Inhibitors” (J Med Chem, 2025)
# Legend:
# [1] = target: T1, Angiotensin-converting enzyme (Homo sapiens, UniProt P12821); experiment: Inhibition of human glycosylated C-terminal catalytic ACE domain using Cbz-Phe-His-Leu substrate by fluorogenic end point activity assay
# Neprilysin = Neprilysin (Homo sapiens, UniProt P08473); experiment: Inhibition of human NEP ectodomain using MCA-RPPGFSAFK-(Dnp)-OH peptide as substrate by continuous activity assay
# Neprilysin, sequence (P08473 whole entry, the tested form may be a part): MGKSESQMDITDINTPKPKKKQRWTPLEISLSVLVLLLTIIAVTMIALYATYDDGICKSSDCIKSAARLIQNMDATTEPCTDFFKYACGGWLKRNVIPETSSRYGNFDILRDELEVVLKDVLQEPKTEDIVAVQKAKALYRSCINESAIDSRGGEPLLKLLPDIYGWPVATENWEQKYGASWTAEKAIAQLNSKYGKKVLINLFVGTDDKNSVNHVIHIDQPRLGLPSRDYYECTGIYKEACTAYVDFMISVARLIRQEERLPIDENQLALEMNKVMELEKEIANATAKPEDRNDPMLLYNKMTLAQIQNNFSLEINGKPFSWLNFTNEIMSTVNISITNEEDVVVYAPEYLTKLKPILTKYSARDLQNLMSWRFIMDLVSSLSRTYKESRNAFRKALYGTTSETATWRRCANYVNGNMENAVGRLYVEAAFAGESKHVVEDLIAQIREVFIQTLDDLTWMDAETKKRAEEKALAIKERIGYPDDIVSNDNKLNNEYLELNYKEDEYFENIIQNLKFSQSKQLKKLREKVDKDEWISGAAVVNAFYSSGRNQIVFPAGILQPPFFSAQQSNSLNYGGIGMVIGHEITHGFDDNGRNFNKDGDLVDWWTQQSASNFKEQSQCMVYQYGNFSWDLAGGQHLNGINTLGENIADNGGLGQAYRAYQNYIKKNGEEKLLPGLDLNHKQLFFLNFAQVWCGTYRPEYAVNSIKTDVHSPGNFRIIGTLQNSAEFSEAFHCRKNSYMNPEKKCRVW
# [2] = target: T1, Angiotensin-converting enzyme; experiment: Inhibition of human glycosylated N-terminal catalytic ACE domain using Cbz-Phe-His-Leu substrate by fluorogenic end point activity assay
# Homo sapiens = species: Homo sapiens; experiment: Selectivity factor, ratio of IC50 for human glycosylated nACE to IC50 for human glycosylated cACE
# T1 sequence (P12821 whole entry, the tested form may be a part): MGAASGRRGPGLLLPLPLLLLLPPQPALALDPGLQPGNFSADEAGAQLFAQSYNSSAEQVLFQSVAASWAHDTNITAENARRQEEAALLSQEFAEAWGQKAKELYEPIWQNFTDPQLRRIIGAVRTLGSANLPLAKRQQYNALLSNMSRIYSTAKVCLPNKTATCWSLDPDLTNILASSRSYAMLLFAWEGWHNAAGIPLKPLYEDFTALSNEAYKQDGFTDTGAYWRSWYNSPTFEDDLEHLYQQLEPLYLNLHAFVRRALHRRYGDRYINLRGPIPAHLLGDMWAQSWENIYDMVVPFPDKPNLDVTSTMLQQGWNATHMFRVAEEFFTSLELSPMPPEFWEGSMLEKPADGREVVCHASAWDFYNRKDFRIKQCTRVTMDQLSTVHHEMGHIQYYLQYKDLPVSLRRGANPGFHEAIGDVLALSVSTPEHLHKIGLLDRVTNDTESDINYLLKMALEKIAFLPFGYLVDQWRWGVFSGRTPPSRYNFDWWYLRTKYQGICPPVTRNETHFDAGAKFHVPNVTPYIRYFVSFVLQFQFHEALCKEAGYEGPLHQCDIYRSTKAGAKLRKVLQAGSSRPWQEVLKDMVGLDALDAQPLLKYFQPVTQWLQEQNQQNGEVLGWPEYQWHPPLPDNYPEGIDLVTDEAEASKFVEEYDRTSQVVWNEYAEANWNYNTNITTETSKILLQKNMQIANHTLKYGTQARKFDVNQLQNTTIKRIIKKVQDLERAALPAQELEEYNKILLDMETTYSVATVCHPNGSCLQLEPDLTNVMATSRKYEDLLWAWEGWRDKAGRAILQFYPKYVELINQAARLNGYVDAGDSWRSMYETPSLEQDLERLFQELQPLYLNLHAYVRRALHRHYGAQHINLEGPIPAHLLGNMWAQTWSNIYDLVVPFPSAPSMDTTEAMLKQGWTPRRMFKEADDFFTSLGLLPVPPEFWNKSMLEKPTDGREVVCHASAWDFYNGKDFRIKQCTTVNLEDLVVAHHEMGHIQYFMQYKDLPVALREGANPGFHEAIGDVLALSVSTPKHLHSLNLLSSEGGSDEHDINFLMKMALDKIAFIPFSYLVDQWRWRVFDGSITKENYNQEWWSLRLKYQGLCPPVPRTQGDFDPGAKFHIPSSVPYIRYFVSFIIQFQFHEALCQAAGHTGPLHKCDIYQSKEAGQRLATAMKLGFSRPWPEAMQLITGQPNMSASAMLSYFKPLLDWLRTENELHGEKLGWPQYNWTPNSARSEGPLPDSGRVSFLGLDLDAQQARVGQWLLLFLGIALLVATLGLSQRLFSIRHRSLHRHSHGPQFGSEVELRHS
SMILES,IC50 [1],IC50 (Neprilysin),IC50 [2],Ratio IC50 (Homo sapiens)
NCCCC[C@H](N[C@@H](CCc1ccccc1)C(=O)O)C(=O)N[C@@H](Cc1c[nH]c2ccccc12)C(=O)O,0.08 µM,> 250 µM,3.1 µM,39
Cc1ccc([C@H]2CC[C@@H](C(=O)O)N2C(=O)CN[C@@H](CCc2ccccc2)C(=O)O)cc1,4.1 µM,> 100 µM,6 µM,1.5
NCCCC[C@H](NC(=O)[C@@H](S)Cc1ccccc1)C(=O)N[C@@H](Cc1c[nH]c2ccccc12)C(=O)O,0.007 µM,,,
O=C(NCC(=O)N1[C@@H](c2cccc(O)c2)CC[C@H]1C(=O)O)[C@@H](S)Cc1ccc(O)cc1,0.009 µM,,,
